Experimental data published in ChEMBL document CHEMBL1150747, “Isolation of deoxyshikonin, an antidermatophytic principle from Lithospermum erythrorhizon cell cultures” (1988).
Values after ≈ are worked out from the molar mass of the structure shown. Active and inactive are the calls of the source. No cut-off for these calls is given here.

Experiments:
Serratia marcescens = assay: Antimicrobial activity against Serratia marcescens IFO 12648 at 200 ug/mL after 24 hrs by paper disk method; type: functional, organism-based
Pseudomonas aeruginosa = assay: Antimicrobial activity against Pseudomonas aeruginosa IFO 12689 at 200 ug/mL after 24 hrs by paper disk method; type: functional, organism-based
Nannizzia gypsea = assay: Antimicrobial activity against Microsporum gypseum IFO 8307 after 7 days by agar dilution streak method; type: functional; settings: IFO 8307, 168 h
[1] = tested on: Trichophyton mentagrophytes; assay: Fungistatic activity against Trichophyton mentagrophytes IFO 5809 at 100 ug/mL after 7 days by liquid dilution method; type: functional, organism-based
Saccharomyces = assay: Antimicrobial activity against Saccharomyces sake IFO 0305 after 7 days by agar dilution streak method; type: functional; settings: IFO 0305, 168 h
[2] = tested on: Meyerozyma guilliermondii; assay: Antimicrobial activity against Candida guilliermondii IFO 0454 at 200 ug/mL after 7 days by paper disk method; type: functional, organism-based
Staphylococcus aureus = assay: Antimicrobial activity against Staphylococcus aureus 209P IFO 12732 after 24 hrs by agar dilution streak method; type: functional; settings: 209P IFO 12732, 24 h
Candida albicans = assay: Antimicrobial activity against Candida albicans IFO 0197 at 200 ug/mL after 7 days by paper disk method; type: functional, organism-based
Epidermophyton floccosum = assay: Antimicrobial activity against Epidermophyton floccosum IFO 9045 after 7 days by agar dilution streak method; type: functional; settings: IFO 9045, 168 h
Bacillus subtilis = assay: Antimicrobial activity against Bacillus subtilis PCI 219 IFO 3513 after 24 hrs by agar dilution streak method; type: functional; settings: PCI 219 IFO 3513, 24 h
Kocuria rosea = assay: Antimicrobial activity against Micrococcus roseus IFO 3764 after 24 hrs by agar dilution streak method; type: functional; settings: IFO 3764, 24 h
[3] = tested on: Trichophyton tonsurans var. sulfureum; assay: Antimicrobial activity against Trichophyton tonsurans var. sulfureum IFO 5945 after 7 days by agar dilution streak method; type: functional; settings: IFO 5945, 168 h
Pichia norvegensis = assay: Antimicrobial activity against Candida mycoderma IFO 0162 at 200 ug/mL after 7 days by paper disk method; type: functional, organism-based
Micrococcus luteus = assay: Antimicrobial activity against Micrococcus luteus IFO 12708 after 24 hrs by agar dilution streak method; type: functional; settings: IFO 12708, 24 h
Escherichia coli = assay: Antimicrobial activity against Escherichia coli NIHJ IFO 12734 at 200 ug/mL after 24 hrs by paper disk method; type: functional, organism-based
[4] = tested on: Trichophyton mentagrophytes; assay: Antimicrobial activity against Trichophyton mentagrophytes IFO 5809 after 7 days by agar dilution streak method; type: functional; settings: IFO 5809, 168 h
Candida tropicalis = assay: Antimicrobial activity against Candida tropicalis IFO 0006 at 200 ug/mL after 7 days by paper disk method; type: functional, organism-based
Trichophyton rubrum = assay: Antimicrobial activity against Trichophyton rubrum IFO 5808 after 7 days by agar dilution streak method; type: functional; settings: IFO 5808, 168 h
Cyberlindnera jadinii = assay: Antimicrobial activity against Candida utilis […] at 200 ug/mL after 7 days by paper disk method; type: functional, organism-based

Row | Structure (SMILES) | Activity (Serratia marcescens) | Activity (Pseudomonas aeruginosa) | MIC (Nannizzia gypsea) [µg/mL] | Activity [1] | MIC (Saccharomyces) [µg/mL] | Activity [2] | MIC (Staphylococcus aureus) [µg/mL] | Activity (Candida albicans) | MIC (Epidermophyton floccosum) [µg/mL] | MIC (Bacillus subtilis) [µg/mL] | MIC (Kocuria rosea) [µg/mL] | MIC [3] [µg/mL] | Activity (Pichia norvegensis) | MIC (Micrococcus luteus) [µg/mL] | Activity (Escherichia coli) | MIC [4] [µg/mL] | Activity (Candida tropicalis) | MIC (Trichophyton rubrum) [µg/mL] | Activity (Cyberlindnera jadinii)
1 | CC(C)=CCCC1=CC(=O)c2c(O)ccc(O)c2C1=O [DEOXYSHIKONIN] | inactive | inactive | 6.2 (≈ 22.8 µM) | inactive | 6.2 (≈ 22.8 µM) | inactive | 200 (≈ 734 µM) | inactive | 6.2 (≈ 22.8 µM) | 200 (≈ 734 µM) | 100 (≈ 367 µM) | 12.5 (≈ 45.9 µM) | inactive | 50 (≈ 184 µM) | inactive | 12.5 (≈ 45.9 µM) | inactive | 25 (≈ 91.8 µM) | inactive
2 | CC(C)=CC[C@@H](O)C1=CC(=O)c2c(O)ccc(O)c2C1=O [SHIKONIN] | inactive | inactive | 12.5 (≈ 43.4 µM) |  | 3.1 (≈ 10.8 µM) | inactive | > 200 | inactive | 6.2 (≈ 21.5 µM) | > 200 | 200 (≈ 694 µM) | 25 (≈ 86.7 µM) | inactive | 100 (≈ 347 µM) | inactive | 25 (≈ 86.7 µM) | inactive | 25 (≈ 86.7 µM) | inactive
3 | COC1=CC(=O)C[C@@H](C)[C@]12Oc1c(Cl)c(OC)cc(OC)c1C2=O [GRISEOFULVIN] |  |  | 1.5 (≈ 4.25 µM) |  |  |  |  |  | 1.5 (≈ 4.25 µM) |  |  | 3.1 (≈ 8.79 µM) |  |  |  | 3.1 (≈ 8.79 µM) |  | 3.1 (≈ 8.79 µM) | 
4 | O=C(N[C@H](CO)[C@H](O)c1ccc([N+](=O)[O-])cc1)C(Cl)Cl [CHLORAMPHENICOL] |  |  |  |  | > 200 |  | 12.5 (≈ 38.7 µM) |  |  | 6.2 (≈ 19.2 µM) | 25 (≈ 77.4 µM) |  |  | 6.2 (≈ 19.2 µM) |  |  |  |  | 
